# Laboratory results taken from patent US12492173B2, “Herbicidal substituted N-tetrazolyl aryl carboxamides” (Bayer Aktiengesellschaft, priority 2019, dated 2025).
# Key:
# Type in all cases: in vivo
# [1] = system: Stellaria media; experiment: Pre-emergence herbicidal action, STEME; design: key to Herbicidal action against STEME: % activity: 100 = plants have died, 0 = like control plants; conditions: for Herbicidal action against STEME: comparative experiment, 20 g of a.i./ha; for herbicidal activity STEME: scored visually after 3 weeks vs untreated controls (100% = plants have died)
# Procedure, shortened: (§1)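 Seeds were covered with sandy loam soil, then received a pre-emergence surface spray of the WP- or EC-formulated compound. After 3 weeks under good greenhouse growth conditions, damage was scored visually in percent.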
# [2] = system: Hordeum murinum; experiment: Pre-emergence herbicidal action, HORMU; conditions: dosage 320 g/ha; for herbicidal activity HORMU: scored visually after 3 weeks vs untreated controls (100% = plants have died)
# Procedure, shortened: as §1
# [3] = system: Alopecurus myosuroides; experiment: Post-emergence herbicidal action, ALOMY; design: key: % herbicidal action vs untreated; 100 = plants died, 0 = like control
# Procedure, shortened: (§2)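 WP or EC formulations, diluted in water at 600 to 800 l/ha with 0.2% wetting agent, are sprayed onto green parts of one-leaf-stage plants grown in sandy loam. Visual assessment of percent damage relative to untreated controls follows after approximately 3 weeks in the greenhouse.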
# [4] = system: Amaranthus retroflexus; experiment: Pre-emergence herbicidal action, AMARE; design: key to Herbicidal action against AMARE: % activity: 100 = plants have died, 0 = like control plants; conditions: for Herbicidal action against AMARE: comparative experiment, 20 g of a.i./ha; for herbicidal activity AMARE: scored visually after 3 weeks vs untreated controls (100% = plants have died)
# Procedure, shortened: as §1
# [5] = system: Lolium rigidum; experiment: Pre-emergence herbicidal action, LOLRI; conditions: dosage 320 g/ha, scored visually after 3 weeks vs untreated controls (100% = plants have died)
# Description: 1. Pre-Emergence Herbicidal Action Against Harmful Plants Seeds of monocotyledonous and dicotyledonous weed plants and crop plants are laid out in sandy loam soil in wood-fiber pots and covered with soil. The compounds of the invention, formulated in the form of wettable powders (WP) or as emulsion concentrates (EC), are then applied to the surface of the covering soil in the form of an aqueous suspension or emulsion at a water application rate equating to 600 to 800 l/ha, with addition of 0.2% wetting agent. After the treatment, the pots are placed in a greenhouse and kept under good growth conditions for the trial plants. The damage to the test plants is scored visually after a test period of 3 weeks by comparison with untreated controls (herbicidal activity in percent (%): 100% activity=the plants have died, 0% activity=like control plants). […] The tables below illustrate, in an exemplary manner, the […] herbicidal action of the compounds according to the invention, the herbicidal activity being stated in percent. [table] In the experiments that follow, herbicidal action of numerous inventive compounds and the known compounds that are structurally closest from D1 (WO 2012/028579 A1) and D2 (WO 2018/202535 A1) were compared under the above-specified conditions by the pre-emergence and post-emergence method. The example numbers given in the tables relate to the compounds disclosed in the respective documents. In addition to the compounds disclosed in D1 and D2, the following compounds V-1 to V-14 that are encompassed by D1 or D2 but are not compounds specified therein were used in the comparative experiments: • V-1: 2-(methylsulfanyl)-3-(methylsulfinyl)-N-(1-methyl-1H-tetrazol-5-yl)-4-(trifluoromethyl)benzamide • V-2: 2-(methylsulfanyl)-3-(methylsulfonyl)-N-(1-methyl-1H-tetrazol-5-yl)-4-(trifluoromethyl)benzamide • V-3: 2,3-bis(ethylsulfanyl)-N-(1-methyl-1H-tetrazol-5-yl)-4-(trifluoromethyl)benzamide • V-4: 2-chloro-3-(ethylsulfanyl)-N-(1-methyl-1H-tetrazol-5-yl)-4-(trifluoromethyl)benzamide • V-5: 2-chloro-4-iodo-3-(methylsulfanyl)-N-(1-methyl-1H-tetrazol-5-yl)benzamide • V-6: 2-chloro-4-iodo-3-(methylsulfinyl)-N-(1-methyl-1H-tetrazol-5-yl)benzamide • V-7: 2-chloro-4-iodo-3-(methylsulfonyl)-N-(1-methyl-1H-tetrazol-5-yl)benzamide • V-8: 2-bromo-3-(methylsulfanyl)-N-(1-methyl-1H-tetrazol-5-yl)-4-(trifluoromethyl)benzamide • V-9: 2-bromo-3-(methylsulfinyl)-N-(1-methyl-1H-tetrazol-5-yl)-4-(trifluoromethyl)benzamide • V-10: 2-bromo-3-(methylsulfonyl)-N-(1-methyl-1H-tetrazol-5-yl)-4-(trifluoromethyl)benzamide • V-11: 2-bromo-3-(ethylsulfanyl)-N-(1-methyl-1H-tetrazol-5-yl)-4-(trifluoromethyl)benzamide • V-12: 2-bromo-3-(ethylsulfinyl)-N-(1-methyl-1H-tetrazol-5-yl)-4-(trifluoromethyl)benzamide • V-13: 2-bromo-3-(ethylsulfonyl)-N-(1-methyl-1-1H-tetrazol-5-yl)-4-(trifluoromethyl)benzamide • V-14: 2-cyclopropyl-3-(ethylsulfanyl)-N-(1-methyl-1H-tetrazol-5-yl)-4-(trifluoromethyl)benzamide Herbicidal Pre-Emergence Action: […]
# [6] = system: Cyperus esculentus; experiment: Post-emergence herbicidal action, CYPES; design: key: % herbicidal action vs untreated; 100 = plants died, 0 = like control
# Procedure, shortened: as §2
# [7] = comparative experiment, post-emergence, 5 g of a.i./ha
SMILES,Herbicidal action against STEME [1],herbicidal activity STEME ([1]; dosage 320 g/ha) [%],herbicidal activity HORMU [2] [%],"herbicidal action ALOMY ([3]; post-emergence, dosage 80 g/ha) [%]",Herbicidal action against AMARE [4],herbicidal activity AMARE ([4]; dosage 320 g/ha) [%],herbicidal activity LOLRI [5] [%],herbicidal action ALOMY ([3]; Dosage 80 g/ha),herbicidal action CYPES ([6]; Dosage 80 g/ha),"herbicidal action CYPES ([6]; post-emergence, dosage 80 g/ha) [%]","Herbicidal action against CYPES [6, 7]","Herbicidal action against ALOMY [3, 7]",herbicidal action STEME ([1]; dosage 320 g/ha) [%],herbicidal action HORMU [2] [%],herbicidal action AMARE ([4]; dosage 320 g/ha) [%]
Cn1nnnc1NC(=O)c1ccc(I)c(C[S+](C)[O-])c1Cl (racemic) [Example 1-363],100,100,100,90,100,100,100,–,–,–,–,–,–,–,–
COCC[S+]([O-])Cc1c(C(F)(F)F)ccc(C(=O)Nc2nnnn2C)c1Cl (racemic) [Example 1-306],–,100,90,–,–,100,90,90,–,–,–,–,–,–,–
C=CCSCc1c(C(F)(F)F)ccc(C(=O)Nc2nnnn2CCC)c1Cl [Example 3-308],–,100,80,–,–,100,80,100,90,–,–,–,–,–,–
Cn1nnnc1NC(=O)c1ccc(C(F)(F)F)c(C[S+]([O-])C2CC2)c1Cl (racemic) [Example 1-303],–,100,100,100,–,100,100,–,–,80,–,–,–,–,–
CCn1nnnc1NC(=O)c1ccc(I)c(C[S+](C)[O-])c1Cl (stereo not drawn) [Example 2-363],–,100,100,–,–,100,100,90,–,–,–,–,–,–,–
Cn1nnnc1NC(=O)c1ccc(C(F)(F)F)c(CS(=O)(=O)C2CC2)c1Cl [Example 1-304],–,100,100,100,–,100,100,–,–,90,–,–,–,–,–
Cn1nnnc1NC(=O)c1ccc(C(F)(F)F)c(CSCC(F)(F)F)c1Cl [Example 1-311],–,100,100,–,–,100,100,100,100,–,–,–,–,–,–
Cn1nnnc1NC(=O)c1ccc(I)c(CS(C)(=O)=O)c1Cl [Example 1-364],90,100,90,–,100,100,80,90,–,–,–,–,–,–,–
CCCn1nnnc1NC(=O)c1ccc(C(F)(F)F)c(CSCC2CC2)c1Cl [Example 3-314],–,100,90,100,–,100,90,–,–,80,–,–,–,–,–
CCn1nnnc1NC(=O)c1ccc(C(F)(F)F)c(C[S+]([O-])CC2CC2)c1Cl (stereo not drawn) [Example 2-315],–,100,100,–,–,100,90,–,–,–,–,–,–,–,–
Cn1nnnc1NC(=O)c1ccc(C(F)(F)F)c(CS(=O)(=O)CC2CC2)c1Cl [Example 1-316],–,100,90,–,–,100,90,90,–,–,–,–,–,–,–
CSCc1c(I)ccc(C(=O)Nc2nnnn2C)c1Cl [Example 1-362],90,100,80,90,90,100,80,–,–,–,30,70,–,–,–
Cn1nnnc1NC(=O)c1ccc(C(F)(F)F)c(CSC2CC2)c1Cl [Example 1-302],–,100,100,100,–,100,100,–,–,80,–,–,–,–,–
CCn1nnnc1NC(=O)c1ccc(C(F)(F)F)c(C[S+]([O-])CC)c1Cl (stereo not drawn) [Example 2-300],–,100,100,90,–,100,100,–,–,–,–,–,–,–,–
CCCn1nnnc1NC(=O)c1ccc(C(F)(F)F)c(C[S+](C)[O-])c1SC (stereo not drawn) [Example 3-162],–,100,100,90,–,100,90,–,–,–,–,–,–,–,–
CC[S+]([O-])Cc1c(C(F)(F)F)ccc(C(=O)Nc2nnnn2C)c1Cl (racemic) [Example 1-300],–,100,100,90,–,100,100,–,–,–,–,–,–,–,–
Cn1nnnc1NC(=O)c1ccc(C(F)(F)F)c(C[S+]([O-])CC(F)(F)F)c1Cl (racemic) [Example 1-312],–,100,100,90,–,100,90,–,–,–,–,–,–,–,–
Cn1nnnc1NC(=O)c1ccc(C(F)(F)F)c(CSCC2CC2)c1Cl [Example 1-314],–,90,100,100,–,100,100,–,–,80,–,–,–,–,–
CCCn1nnnc1NC(=O)c1ccc(C(F)F)c(CS(=O)(=O)CC)c1Cl [Example 3-325],–,100,100,–,–,100,100,–,90,–,–,–,–,–,–
COCCSCc1c(C(F)(F)F)ccc(C(=O)Nc2nnnn2C)c1Cl [Example 1-305],–,100,100,100,–,100,90,–,–,90,–,–,–,–,–
CCn1nnnc1NC(=O)c1ccc(C(F)(F)F)c(CSCC(F)(F)F)c1Cl [Example 2-311],–,100,80,–,–,100,90,90,–,–,–,–,–,–,–
CCCn1nnnc1NC(=O)c1ccc(I)c(C[S+](C)[O-])c1Cl (stereo not drawn) [Example 3-363],–,–,–,–,–,–,–,80,–,–,–,–,100,100,100
CCn1nnnc1NC(=O)c1ccc(C(F)F)c(C[S+]([O-])CC)c1Cl (stereo not drawn) [Example 2-324],–,100,100,90,–,100,90,–,–,–,–,–,–,–,–
